Assay results reported in patent US20160310463A1, “LIQUID STATIN FORMULATION” (priority 2009, published 2016).
Counter-ions that a name gives are not always drawn. Like-named read-outs stand apart in the source and are kept apart here. Blank lines part the entries; values can stand above or below the compound they belong to.

How the values were obtained:
children with HeFH [1] = assay: Dirisamer et al.: low-dose simvastatin in children with HeFH; format: in vivo, human
Description: If the range of LDL-C of 150-170 mg/dl was not reached within the first 8 weeks, the daily dosage was increased stepwise up to 20 mg. The cut-off level for LDL-C<170 mg/dl (range 150-170 mg/dl) was determined according to the high mean concentrations of LDL-C of the study population.

[2] = Simvastatin solubility screening, visual observation; format: physicochemical; conditions: for Visual Appearance: 23° C.
Description: The study was performed by visual observation of the samples at various time points followed by chemical testing of the centrifuged supernatant. Ten vehicles chosen for the solubility screen are referenced in Table 2 below. One (1 g) of each vehicle was dispensed into an Eppendorf tube. […] Samples not visually soluble, after about 21 hours, were heated to 60° C. while being mixed for 1 hour. Samples were allowed to reach room temperature, and visual observations were recorded. All samples were centrifuged for 10 minutes at 10,000 RPM.

[3] = test system: children younger than 17 years of age with hyperlipidemia; conditions: mean dosage 16 mg once daily, cited from earlier work
children with HeFH [4] = conditions: cited from earlier work
pediatric HeFH patients = conditions: cited from earlier work
[5] = cited from earlier work
[6] = pH of 7.0; cited from earlier work
[7] = adults; estimate for the five statins together; cited from earlier work
[8] = test system: testicular endocrine function; conditions: dogs, very high doses; cited from earlier work
[9] = test system: adrenal and gonadal steroidogenesis; conditions: humans, up to 80 mg/day, basal conditions; cited from earlier work
children and adolescents = conditions: cited from earlier work
[10] = test system: adrenocortical and testicular steroidogenesis; conditions: males age 18-50 years, long-term therapy, cited from earlier work
[11] = test system: HeFH children and adolescents; conditions: 5 mg and 10 mg pravastatin; cited from earlier work

Visual Appearance ([2]; 2.5 mg in 1 g 5% SLS in Water, 30 Min to ~21 Hrs): Clear colorless liquid w/ air bubbles | Visual Appearance ([2]; 2.5 mg in 1 g Captex 500 P, 30 Min to ~21 Hrs): Clear colorless liquid | Visual Appearance ([2]; 2.5 mg in 1 g E. Pure Water, 30 Min to ~21 Hrs): Cloudy liquid w/ white powder | Visual Appearance ([2]; 2.5 mg in 1 g Labrafil M 2125 CS, merged cell, Initial to about 2 Hrs): Yellow liquid w/ white powder | Visual Appearance ([2]; 2.5 mg in 1 g Labrasol, 30 Min to ~21 Hrs): Pale yellow liquid | Visual Appearance ([2]; 2.5 mg in 1 g PEG 400, 30 Min to ~21 Hrs): Clear colorless liquid | Visual Appearance ([2]; 2.5 mg in 1 g Polysorbate 80, Initial to ~21 Hrs): Yellow liquid w/ white powder | Visual Appearance ([2]; 2.5 mg in 1 g Propylene Glycol, 30 Min to ~21 Hrs): Clear colorless liquid
Compound: CCC(C)(C)C(=O)O[C@@H]1C[C@H](C)C=C2C=C[C@@H](C)[C@@H](CC[C@@H]3C[C@H](O)CC(=O)O3)[C@@H]21 (relative stereo) [Simvastatin, butanoic acid, 2,2-dimethyl-,1,2,3,7,8,8a-hexahydro-3,7-dimethyl-8-[2-(tetrahydro-4-hydroxy-6-oxo-2H-pyran-2-yl)-ethyl]-1-naphthalenyl ester, [1S-[1α,3α,7β,8β(2S*,4S*),-8aβ]]]
higher LDL-C reduction compared with other statins tested in young HeFH patients (children with HeFH [1]; 5 mg and 10 mg simvastatin period): ~10% | share of the mean LDL-C reduction of the highest dose (20 mg/day) reached by the lowest dose (5 mg/day) (children with HeFH [1]; in vivo): more than 70% | Visual Appearance after Application of Heat (60° C.) for 1 Hour and Cooled to Room Temperature ([2]; 2.5 mg in 1 g E. Pure Water): Hazy liquid w/ white powder and air bubbles | Visual Appearance after Application of Heat (60° C.) for 1 Hour and Cooled to Room Temperature ([2]; 2.5 mg in 1 g Glycerine): Slightly hazy liquid w/ some white powder | Visual Appearance ([2]; 2.5 mg in 1 g Glycerine, Initial to ~21 Hrs): Stiff clear, colorless liquid w/ white powder | Visual Appearance after Application of Heat (60° C.) for 1 Hour and Cooled to Room Temperature ([2]; 2.5 mg in 1 g Polysorbate 80): Clear yellow liquid w/ some white residue | fall of circulating LDL-C at week 104 ([3]; in 1 patient): 15-20% | fall of circulating LDL-C at week 104 ([3]; in 7 patients): 40-60% | fall of circulating LDL-C at week 104 ([3]; in 8 patients): 20-40% | patients reaching the recommended therapeutic level (LDL-C<170 mg/dl) within the first period (children with HeFH [4]; 5 mg simvastatin daily, nine patients started with 5 mg): four | percentage decrease in LDL-C concentration (children with HeFH [4]; 5 mg simvastatin period): 25% | percentage decrease in total cholesterol (children with HeFH [4]; 5 mg simvastatin period): 19% | patients reaching the recommended therapeutic level within the first period (children with HeFH [4]; 10 mg simvastatin daily, 11 patients started with 10 mg): Six | percentage decrease in LDL-C concentration (children with HeFH [4]; 10 mg simvastatin period): 30% | percentage decrease in total cholesterol (children with HeFH [4]; 10 mg simvastatin period): 26% | percentage decrease in LDL-C concentration (children with HeFH [4]; 20 mg simvastatin period): 36% | percentage decrease in total cholesterol (children with HeFH [4]; 20 mg simvastatin period): 29% | side effects that could be related to simvastatin (children with HeFH [4]; 5, 10 and 20 mg dosage periods): few and equally distributed among the three dosage periods | subjects with abnormal levels of routine safety parameters (CK, ALAT, GGT) (children with HeFH [4]; group of 20 girls and boys): three | change in total-C, LDL-C and ApoB compared with placebo (pediatric HeFH patients; at 24 weeks): significant (P<0.001) reductions | change in HDL-C and ApoA1 (pediatric HeFH patients; only significant relative to placebo at week 24 (P<0.05)): increased for all weeks | results from the extension at 48 weeks (pediatric HeFH patients; simvastatin 40 mg): comparable to those observed in the base study | change in triglycerides (pediatric HeFH patients; weeks 8, 16, and 48): Significant reductions

Compound: CC(C)c1nc(N(C)S(C)(=O)=O)nc(-c2ccc(F)cc2)c1/C=C/C(O)C[C@@H](O)CC(=O)O (stereo in doubt) [Rosuvastatin calcium, bis[(E)-7-[4-(4-fluorophenyl)-6-isopropyl-2-[methyl(methylsulfonyl)amino]pyrimidin-5-yl](3R,5S)-3,5-dihydroxyhept-6-enoic acid] calcium salt]
solubility ([5]; in ethanol): slightly soluble | solubility ([5]; in water and methanol): sparingly soluble | partition coefficient (octanol/water) [6]: 0.13

Compound: CC(C)c1c(C(=O)Nc2ccccc2)c(-c2ccccc2)c(-c2ccc(F)cc2)n1CC[C@@H](O)C[C@@H](O)CC(=O)O [Atorvastatin, (3R, 5R)-7-[2-(4-fluorophenyl)-3-phenyl-4-(phenylcarbamoyl)-5-(propan-2-yl)-1H-pyrrol-1-yl]-3,5-dihydroxyheptanoic acid]
occurrence of rhabdomyolysis [7]: 3 per 100 000 person-years

Compound: COCc1c(C(C)C)nc(C(C)C)c(/C=C/[C@@H](O)C[C@@H](O)CC(=O)O)c1-c1ccc(F)cc1 [Cerivastatin sodium]
solubility ([5]; in acetone): very slightly soluble | solubility ([5]; in water, methanol, and ethanol): soluble

Compound: CC[C@H](C)C(=O)O[C@H]1C[C@@H](C)C=C2C=C[C@H](C)[C@H](CC[C@@H]3C[C@@H](O)CC(=O)O3)[C@H]21 [Lovastatin, (1S,3R,7S,8S,8aR)-8-{2-[(2R,4R)-4-hydroxy-6-oxooxan-2-yl]ethyl}-3,7-dimethyl-1,2,3,7,8,8a-hexahydronaphthalen-1-yl (2S)-2-methylbutanoate]
effect on testicular endocrine function [8]: reduction in testicular endocrine function | effect on adrenal and gonadal steroidogenesis [9]: no effect | occurrence of rhabdomyolysis [7]: 3 per 100 000 person-years | LDL-C reduction (children and adolescents; 10 mg lovastatin): 21% | LDL-C reduction (children and adolescents; 20 mg lovastatin): 24% | share of the mean LDL-C reduction of the highest dose of 40 reached by the lowest dose (10 mg/day) (children and adolescents; in vivo): more than 50%

Compound: CC[C@H](C)C(=O)O[C@H]1C[C@H](O)C=C2C=C[C@H](C)[C@H](CC[C@@H](O)C[C@@H](O)CC(=O)O)[C@H]21 [Pravastatin, (bR,dR,1S,2S,6S,8S,8aR)-1,2,6,7,8,8a-Hexahydro-b,d,6-trihydroxy-2-methyl-8-[(2S)-2-methyl-1-oxobutoxy]-1-naphthaleneheptanoic acid monosodium salt]
interference with adrenal and testicular steroidogenesis ([10]; maximum stimulation): did not interfere | serum testosterone levels [10]: remained unchanged | occurrence of rhabdomyolysis [7]: 3 per 100 000 person-years | average decrease in LDL-C concentration [11]: 23%

Compound: [R.,S.-(E)]-(±)-7-[3-(4-fluorophenyl)-1-(1-methylethyl)-1H-indol-2-yl]-3,5-dihydroxy-6-heptenoic acid, monosodium salt [Fluvastatin]
occurrence of rhabdomyolysis [7]: 3 per 100 000 person-years
